The values below come from patent US8916558B2, “Powders for reconstitution” (Tibotec Pharmaceuticals Ltd., priority 2007, dated 2014).

The nature of this data set: Solubility of TMC278 in water (statement). It counts as physicochemical. The conditions noted are these: free base; background statement.

Consider `Cc1cc(C=CC#N)cc(C)c1Nc1ccnc(Nc2ccc(C#N)cc2)n1` [TMC278, 4-[[4-[[4-(2-cyano-ethenyl)-2,6-dimethylphenyl]-amino]-2-pyrimidinyl]-amino]-benzonitrile], for which the solubility in water entry is recorded as “poorly soluble in water”.
